Measurements as given in the supplement of paper PMC11208160.
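Also: IS621 recombinase and bridge RNA in Escherichia coli cells.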

Test: recombinant barcode read abundance after kanamycin selection (control-corrected) (log10(CPM+1)); higher = more efficient recombination; sequences stand for … in AGTGCAGAGAAAATCGGCCAGTTTTCTCTGCCTGCAGTCCGCATGCCGT…AGATTTATGCAGCGGACTGCCTTTCTCCCAAAGTGATAAACCGGACAGTATCATGGACCGGTTTTCCCGGTAATCCGTATTTGCAAGGTTGGTTTCACT; site = the 11-nt target
In short: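 Reported as log10(CPM+1), each value stands for recombination efficiency. That efficiency is the averaged, control-corrected counts per million of barcodes found at recombinant junctions. Cells from a pooled E. coli library pairing targets with IS621 bridge RNA target-binding loops were plated twice on chloramphenicol/ampicillin LB agar (control) and twice on chloramphenicol/ampicillin/kanamycin with 0.1 mM IPTG.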
For “CAGTGGACTTGGGTTCTAACCTGTTGCCT (site CACTGGACTAG)”, the “recombinant barcode read abundance (log10)” value was 0.101. For “CAGTGGACTTGGGTTCTAACCTGTTGCCT (site CAGTGGACTAG)”, the “recombinant barcode read abundance (log10)” value was 2.04. In the case of “CAGTGGACTTGGGTTCTAACCTGTTGCCT (site CATTGGACTAG)”, the “recombinant barcode read abundance (log10)” value is reported as 0.0477. With “CAGTTGTCTTGGGTTCTAACCTGTTGCCT (site AAGTTGTCTAC)” the “recombinant barcode read abundance (log10)” value was 0.0187. In the case of “CAGTTGTCTTGGGTTCTAACCTGTTGCCT (site CAGTTGTCTAG)”, the “recombinant barcode read abundance (log10)” value is reported as 1.75. With “CATAATTCTTGGGTTCTAACCTGTTGCCT (site CATAATTCTAG)” the “recombinant barcode read abundance (log10)” value was 0.445. With “CATAATTCTTGGGTTCTAACCTGTTGCCT (site CATCATTCTAG)” the “recombinant barcode read abundance (log10)” value was 0. For “CATAATTCTTGGGTTCTAACCTGTTGCCT (site CATGATTCTAG)”, the “recombinant barcode read abundance (log10)” value was 0.0188. For “CATAATTCTTGGGTTCTAACCTGTTGCCT (site CATTATTCTAG)”, the “recombinant barcode read abundance (log10)” value was 0.0376. For “CATAGCGCTTGGGTTCTAACCTGTTGCCT (site AGCTTGCCTCT)”, the “recombinant barcode read abundance (log10)” value was 0.0679. In the case of “CATAGCGCTTGGGTTCTAACCTGTTGCCT (site CATAGCGCTAG)”, the “recombinant barcode read abundance (log10)” value is reported as 0.605. In the case of “CATAGCTCTTGGGTTCTAACCTGTTGCCT (site AATAGCTCTAG)”, the “recombinant barcode read abundance (log10)” value is reported as 0.527. With “CATAGCTCTTGGGTTCTAACCTGTTGCCT (site CATAGCTCTAG)” the “recombinant barcode read abundance (log10)” value was 1.24. In the case of “CATAGCTCTTGGGTTCTAACCTGTTGCCT (site GATAGCTCTAG)”, the “recombinant barcode read abundance (log10)” value is reported as 0.176. With “CATAGCTCTTGGGTTCTAACCTGTTGCCT (site TATAGCTCTAG)” the “recombinant barcode read abundance (log10)” value was 0.337. For “CATAGGCCTTGGGTTCTAACCTGTTGCAT (site CATAGACCTAT)”, the “recombinant barcode read abundance (log10)” value was 0.23. For “CATAGGCCTTGGGTTCTAACCTGTTGCAT (site CATAGCCCTAT)”, the “recombinant barcode read abundance (log10)” value was 0.371. For “CATAGGCCTTGGGTTCTAACCTGTTGCAT (site CATAGGCCTAT)”, the “recombinant barcode read abundance (log10)” value was 0.811. In the case of “CATAGGCCTTGGGTTCTAACCTGTTGCAT (site CATAGTCCTAT)”, the “recombinant barcode read abundance (log10)” value is reported as 0.105. For “CATAGTCCTTGGGTTCTAACCTGTTGCAT (site CATAGACCTAT)”, the “recombinant barcode read abundance (log10)” value was 0.213. In the case of “CATAGTCCTTGGGTTCTAACCTGTTGCAT (site CATAGCCCTAT)”, the “recombinant barcode read abundance (log10)” value is reported as 0.884. For “CATAGTCCTTGGGTTCTAACCTGTTGCAT (site CATAGGCCTAT)”, the “recombinant barcode read abundance (log10)” value was 0.0509. For “CATAGTCCTTGGGTTCTAACCTGTTGCAT (site CATAGTCCTAT)”, the “recombinant barcode read abundance (log10)” value was 0.923. In the case of “CATCCCTCTTGGGTTCTAACCTGTTGCTT (site CATCCCTCTAA)”, the “recombinant barcode read abundance (log10)” value is reported as 1.51. For “CATCCCTCTTGGGTTCTAACCTGTTGCTT (site CATCCGTCTAA)”, the “recombinant barcode read abundance (log10)” value was 0.0576. With “CATCCGTCTTGGGTTCTAACCTGTTGCCT (site CATCCGACTAG)” the “recombinant barcode read abundance (log10)” value was 0.105. In the case of “CATCCGTCTTGGGTTCTAACCTGTTGCCT (site CATCCGCCTAG)”, the “recombinant barcode read abundance (log10)” value is reported as 0.0457. For “CATCCGTCTTGGGTTCTAACCTGTTGCCT (site CATCCGGCTAG)”, the “recombinant barcode read abundance (log10)” value was 0.131. In the case of “CATCCGTCTTGGGTTCTAACCTGTTGCCT (site CATCCGTCTAG)”, the “recombinant barcode read abundance (log10)” value is reported as 1.21. In the case of “CATCCTACTTGGGTTCTAACCTGTTGCCG (site CATCCTACTAT)”, the “recombinant barcode read abundance (log10)” value is reported as 0.0476. With “CATCCTACTTGGGTTCTAACCTGTTGCCG (site CATCCTACTCG)” the “recombinant barcode read abundance (log10)” value was 0.156. In the case of “CATCCTACTTGGGTTCTAACCTGTTGCCT (site CATCCTACTAG)”, the “recombinant barcode read abundance (log10)” value is reported as 0.259. In the case of “CATCCTACTTGGGTTCTAACCTGTTGCCT (site TCCAACTCTGT)”, the “recombinant barcode read abundance (log10)” value is reported as 0.153. For “CATCGGACTTGGGTTCTAACCTGTTGCTA (site CATCGGACTTA)”, the “recombinant barcode read abundance (log10)” value was 0.834. In the case of “CATCGGACTTGGGTTCTAACCTGTTGCTA (site CATTGTACTTA)”, the “recombinant barcode read abundance (log10)” value is reported as 0.347. With “CATCGGGCTTGGGTTCTAACCTGTTGCAG (site CATCGGGCTCT)” the “recombinant barcode read abundance (log10)” value was 1.43. In the case of “CATCGGGCTTGGGTTCTAACCTGTTGCAG (site CCTCGGGCTCT)”, the “recombinant barcode read abundance (log10)” value is reported as 0.0832. For “CATCGGGCTTGGGTTCTAACCTGTTGCAG (site CGTCGGGCTCT)”, the “recombinant barcode read abundance (log10)” value was 0.00527. With “CATCGGGCTTGGGTTCTAACCTGTTGCAG (site CTTCGGGCTCT)” the “recombinant barcode read abundance (log10)” value was 0.292. For “CATGATGCTTGGGTTCTAACCTGTTGCCT (site CAAGATGCTAG)”, the “recombinant barcode read abundance (log10)” value was 0.256. With “CATGATGCTTGGGTTCTAACCTGTTGCCT (site CACGATGCTAG)” the “recombinant barcode read abundance (log10)” value was 0.487. For “CATGATGCTTGGGTTCTAACCTGTTGCCT (site CAGGATGCTAG)”, the “recombinant barcode read abundance (log10)” value was 0.00956. For “CATGATGCTTGGGTTCTAACCTGTTGCCT (site CATGATGCTAG)”, the “recombinant barcode read abundance (log10)” value was 1.86. In the case of “CATGCCGCTTGGGTTCTAACCTGTTGCCT (site CATGACACTAG)”, the “recombinant barcode read abundance (log10)” value is reported as 0.226. For “CATGCCGCTTGGGTTCTAACCTGTTGCCT (site CATGCCGCTAG)”, the “recombinant barcode read abundance (log10)” value was 1.73. With “CATGGGCCTTGGGTTCTAACCTGTTGCCT (site CATGGGCCTAG)” the “recombinant barcode read abundance (log10)” value was 0.0279. In the case of “CATGGGCCTTGGGTTCTAACCTGTTGCCT (site CCTGGGCCTAG)”, the “recombinant barcode read abundance (log10)” value is reported as 0.0246. With “CATGGGCCTTGGGTTCTAACCTGTTGCCT (site CGTGGGCCTAG)” the “recombinant barcode read abundance (log10)” value was 0.151. In the case of “CATGGGCCTTGGGTTCTAACCTGTTGCCT (site CTTGGGCCTAG)”, the “recombinant barcode read abundance (log10)” value is reported as 0.174. In the case of “CATGGGTCTTGGGTTCTAACCTGTTGCCT (site CATGGGTCTAG)”, the “recombinant barcode read abundance (log10)” value is reported as 1.45. In the case of “CATGGGTCTTGGGTTCTAACCTGTTGCCT (site CCTGGGTCTAA)”, the “recombinant barcode read abundance (log10)” value is reported as 0.0946. For “CATTAACCTTGGGTTCTAACCTGTTGCCT (site CATTAACCTAG)”, the “recombinant barcode read abundance (log10)” value was 1.15. With “CATTAACCTTGGGTTCTAACCTGTTGCCT (site TACTAACCTAG)” the “recombinant barcode read abundance (log10)” value was 0.208. For “CATTACTCTTGGGTTCTAACCTGTTGCTT (site CATTACTCTAA)”, the “recombinant barcode read abundance (log10)” value was 0.622. For “CATTACTCTTGGGTTCTAACCTGTTGCTT (site CTTTCCTCTAA)”, the “recombinant barcode read abundance (log10)” value was 0.032. For “CATTCACCTTGGGTTCTAACCTGTTGCCT (site AATTCACCTAG)”, the “recombinant barcode read abundance (log10)” value was 0.153. With “CATTCACCTTGGGTTCTAACCTGTTGCCT (site CATTCACCTAG)” the “recombinant barcode read abundance (log10)” value was 0.39. For “CATTCACCTTGGGTTCTAACCTGTTGCCT (site GATTCACCTAG)”, the “recombinant barcode read abundance (log10)” value was 0.0621. For “CATTCACCTTGGGTTCTAACCTGTTGCCT (site TATTCACCTAG)”, the “recombinant barcode read abundance (log10)” value was 0.111. With “CATTTAGCTTGGGTTCTAACCTGTTGCGG (site AGGGCGCCTAA)” the “recombinant barcode read abundance (log10)” value was 0.0282. With “CATTTAGCTTGGGTTCTAACCTGTTGCGG (site CATTTAGCTCC)” the “recombinant barcode read abundance (log10)” value was 1.06. For “CATTTCCCTTGGGTTCTAACCTGTTGCCT (site CATTTCCCTAA)”, the “recombinant barcode read abundance (log10)” value was 0.0164. For “CATTTCCCTTGGGTTCTAACCTGTTGCCT (site CATTTCCCTAG)”, the “recombinant barcode read abundance (log10)” value was 0.23. In the case of “CCAAATCCTTGGGTTCTAACCTGTTGCAT (site CCAAATCCTAT)”, the “recombinant barcode read abundance (log10)” value is reported as 0.189. For “CCAAATCCTTGGGTTCTAACCTGTTGCAT (site TGTCTAGCTCC)”, the “recombinant barcode read abundance (log10)” value was 0.697. In the case of “CCAAGCACTTGGGTTCTAACCTGTTGCCT (site CCAAGCACTAG)”, the “recombinant barcode read abundance (log10)” value is reported as 0.624. In the case of “CCAAGCACTTGGGTTCTAACCTGTTGCCT (site CCAAGCCCTAG)”, the “recombinant barcode read abundance (log10)” value is reported as 0.138. With “CCAAGCACTTGGGTTCTAACCTGTTGCCT (site CCAAGCGCTAG)” the “recombinant barcode read abundance (log10)” value was 0.0822. In the case of “CCAAGCACTTGGGTTCTAACCTGTTGCCT (site CCAAGCTCTAG)”, the “recombinant barcode read abundance (log10)” value is reported as 0.172. With “CCAAGGCCTTGGGTTCTAACCTGTTGCCG (site CCAAGGCCTCG)” the “recombinant barcode read abundance (log10)” value was 0.0466. With “CCAAGGCCTTGGGTTCTAACCTGTTGCCG (site TTCGCATCTAA)” the “recombinant barcode read abundance (log10)” value was 0.208. For “CCAAGGGCTTGGGTTCTAACCTGTTGCGG (site CCAAGGGCTCA)”, the “recombinant barcode read abundance (log10)” value was 0.628. In the case of “CCAAGGGCTTGGGTTCTAACCTGTTGCGG (site CCAAGGGCTCC)”, the “recombinant barcode read abundance (log10)” value is reported as 2.52. For “CCAAGGGCTTGGGTTCTAACCTGTTGCGG (site CCAAGGGCTCG)”, the “recombinant barcode read abundance (log10)” value was 0.094. With “CCAAGGGCTTGGGTTCTAACCTGTTGCGG (site CCAAGGGCTCT)” the “recombinant barcode read abundance (log10)” value was 2.18. With “CCAAGTACTTGGGTTCTAACCTGTTGCTT (site CCAAGTACTAA)” the “recombinant barcode read abundance (log10)” value was 0.387. In the case of “CCAAGTACTTGGGTTCTAACCTGTTGCTT (site CCACGAACTAA)”, the “recombinant barcode read abundance (log10)” value is reported as 0.106. In the case of “CCAATGTCTTGGGTTCTAACCTGTTGCGT (site CCAATGTCTAC)”, the “recombinant barcode read abundance (log10)” value is reported as 1.03. For “CCAATGTCTTGGGTTCTAACCTGTTGCGT (site GTTCGTCCTTG)”, the “recombinant barcode read abundance (log10)” value was 0.047. For “CCACACACTTGGGTTCTAACCTGTTGCCT (site CAATACACTAG)”, the “recombinant barcode read abundance (log10)” value was 0.0103. With “CCACACACTTGGGTTCTAACCTGTTGCCT (site CCACACACTAG)” the “recombinant barcode read abundance (log10)” value was 0.345. In the case of “CCACCGACTTGGGTTCTAACCTGTTGCCT (site CCACCGACTAG)”, the “recombinant barcode read abundance (log10)” value is reported as 0.0699. For “CCACCGACTTGGGTTCTAACCTGTTGCCT (site GCACCAACTAG)”, the “recombinant barcode read abundance (log10)” value was 0.257. In the case of “CCACCGCCTTGGGTTCTAACCTGTTGCCT (site ACACCGCCTAG)”, the “recombinant barcode read abundance (log10)” value is reported as 0.0161. With “CCACCGCCTTGGGTTCTAACCTGTTGCCT (site CCACCGCCTAG)” the “recombinant barcode read abundance (log10)” value was 0.139. In the case of “CCACCGCCTTGGGTTCTAACCTGTTGCCT (site GCACCGCCTAG)”, the “recombinant barcode read abundance (log10)” value is reported as 0.211.
